Holding throughout (experiment): CDKi biochemical assay (TR-FRET, phosphorylation of S780 on RB1 peptide)
On the technique in general: TR-FRET usually uses a lanthanide donor and a delayed reading to cut background.

The target in one test is CDK4/cyclinD1 (Homo sapiens, UniProt P11802). The settings on record: CDK4/cyclinD1 20 pM, 1 mM ATP, 60 min at 25° C. As for the experimental part: (§1) Biochemical assays measured the inhibitory effects of compounds in this disclosure on the enzymatic activity of CDK enzyme in complex with Cyclin protein partner by phosphorylation of Ser-780 (S780) on retinoblastoma protein peptide (RB1) in the presence of 1 mM adenosime-5-triphosphate (ATP) and varying concentration of test compound in 20 mM 2-[4-(2-hydroxyethyl)paperazin-1-yl] ethanesulfonic acid (HEPES), pH 7.5, 10 mM MgCl2, 1 mM dithiothreitol (DTT), 0.01% bovine serum albumin (BSA), 0.005% Tween 20. Total Reaction volume of 10 μL proceeded for 60 minutes at room temperature (25° C.) and were quenched with 5 μL of 200 mM 2′,2″,2′″-(Ethane-1,2-diyldinitrilo)tetraacetic acid (EDTA) pH 8.0 before addition of 5 μL detection solution containing 100 nM fluorophore conjugate streptavidin allophycocyanin (SA-APC), 2 nM Europium labelled Anti-p-RB(S780)-K (Perkin Elmer, 64CUSKAY), 50 mM HEPES, pH 7.5, 400 mM potassium fluoride (KF), 0.1% BSA, and 0.01% Tween-20. Phosphorylation of S780 on RB1 peptide (His-MBP-RB1[773-924]-SEQ ID NO. 9) was detected by TR-FRET after 3 hour incubation with detection solution. Percent phosphorylation activity was plotted against log concentration of compound to generate an apparent ICSO. The following CDK enzyme in complex with different cyclin proteins and protein peptide substrate were used in these assays: • CDK1/CyclinB1, Avi-tag, 10 pM used in the assay • CDK2/CyclinE1, Avi-tag, 100 pM used in the assay • CDK4/cyclinD1, Avi-tag, 20 pM used in the assay • CDK6/cyclinD3, Avi-tag, 10 pM used in the assay • His-MBP-RB1[773-924], Avi-tag, 200 nM used in the assay
(§2) The avi-tag is a C-terminal fusion on the CDK1/2/4/6 sequence in each of these two-protein complexes. The known avi-tag sequence, […] (SEQ ID NO. 10), is a substrate for E. coli biotin ligase BirA, which covalently attaches a biotin molecule to the e-amino group of the lysine in that sequence. The avi-tag is attached with an 8 amino-acid linker sequence GGSGGGGS (SEQ ID NO. 11), resulting in the full C-terminal fusion
(§3) Recombinant proteins were generated as N-terminal fusions of 9× His tag—E. coli Maltose Binding Protein (MBP), with or without a C-terminal Avi-tag.^1 CDK2 and His-MBP-RB1[773-924]-c-avi were expressed in E. coli while the remainder were expressed in Sf21 insect cells. Genes were synthesized commercially (GeneArt and Twist Bioscience) using codon frequencies appropriate to the respective organisms and proprietary codon optimization strategies, and inserted into pET 24 (E. coli) or pDEST8 (insect) vectors already containing the 9× His-MBP tag using standard methods of PCR and Gibson Assembly.^2 E. coli expression was performed by auto-induction overnight at 18 or 21 C. For insect cell expression, bacmids and viruses were created,^3 then used to synchronously infect Sf21 insect cells with harvest at 40-48 hrs., per standard protocols.^4
(§4) For CDK4/Cyclin D1 and CDK6/Cyclin D3, the complexes were expressed by simultaneous co-infection of insect cells by three separate viruses including one expressing untagged E. coli BirA. The expression media is supplemented with 50 uM d-biotin. The resulting protein complexes purified similarly. After lysis and clarification, the complex is purified by IMAC, Superdex 200 26/60 size exclusion, tag cleavage by human rhinovirus 3C protease, Superdex 75 26/60 size exclusion and reverse IMAC. BirA is typically not retained on the first IMAC, and excess CDK or Cyclin monomer is separated on the Superdex 200 size exclusion. Cleaved His-MBP and remaining monomer are removed by the Superdex 75 size exclusion and the reverse IMAC step. Final concentration by centrifugal concentrators as described above.
(§5) For the is-MBP-RB1[773-924]-c-avi, the protein was lysed by sonication and clarified by centrifugation. […]

The next test has as its target CDK6/cyclinD3 (Homo sapiens, UniProt Q00534). The settings on record: CDK6/cyclinD3 10 pM, 1 mM ATP, 60 min at 25° C. As for the experimental part:
as §1, §2, §3, §4, §5

The target of another test is CDK1/CyclinB1 (Homo sapiens, UniProt P06493). The settings on record: CDK1/CyclinB1 10 pM, 1 mM ATP, 60 min at 25° C. How it is done: as §1, §2, §3
(§6) For CDK2/Cyclin E and CDK1/Cyclin B, the CDK and Cyclin proteins were expressed separately, lysed by sonication and clarified by centrifugation. The fusion proteins were each separately purified by immobilized metal ion affinity chromatography (IMAC) (5 mL HisTrap, Cytiva) and Superdex 200 26/60 (Cytiva) size-exclusion and complexed in vitro (1-3 hrs incubation at room temperature) prior to tag cleavage by recombinant his-tagged Tobacco Etch Virus protease or his-tagged Human rhinovirus 3C protease, as appropriate. The cleaved complex is further purified by Superdex 75 26/60 (Cytiva) size-exclusion followed by reverse-IMAC, in which the complex is in the column flow-through and residual His-MBP and his-tagged proteases are retained. The final complex is concentrated as desired by centrifugal concentration (Amicon Ultra 10,000 Da MWCO 15 mL concentrators, Millipore).
as §5

A further test concerns the target CDK2/CyclinE1 (Homo sapiens, UniProt P24941). The settings on record: CDK2/CyclinE1 100 pM, 1 mM ATP, 60 min at 25° C. As for the experimental part: as §1, §2, §3, §6
For E. coli expressed CDK2 and His-MBP-RB1[773-924]-c-avi, the proteins were biotinylated in vitro after the first IMAC step.^1
as §5

Broadly, the IC50 is the concentration at which inhibition is half-maximal.

`O=C1N([C@@H]2CCC[C@@H](O)C2)c2nc(Nc3c[nH]nc3O[C@@H]3COC[C@@H]3F)ncc2C12CC2` [Example 26, 2′-((3-(((3R,4S)-4-fluorotetrahydrofuran-3-yl)oxy)-1H-pyrazol-4-yl)amino)-7′-((1R,3R)-3-hydroxycyclohexyl)spiro[cyclopropane-1,5′-pyrrolo[2,3-d]pyrimidin]-6′(7′H)-one]: the half-maximal inhibitory concentration (IC50) against CDK4/cyclinD1 was 5.35 µM; against CDK6/cyclinD3, 8.5 µM; on CDK1/CyclinB1, ≥ 10 µM; at CDK2/CyclinE1, 0.059 µM.
Turning to `O=C1N([C@@H]2CCC[C@@H](O)C2)c2nc(Nc3c[nH]nc3O[C@H]3COC[C@H]3F)ncc2C12CC2` [Example 27, 2′-((3-(((3S,4R)-4-fluorotetrahydrofuran-3-yl)oxy)-1H-pyrazol-4-yl)amino)-7′-((1R,3R)-3-hydroxycyclohexyl)spiro[cyclopropane-1,5′-pyrrolo[2,3-d]pyrimidin]-6′(7′H)-one], the half-inhibitory concentration (IC50) against CDK4/cyclinD1 worked out at 1.28 µM; against CDK6/cyclinD3, 3.18 µM; on CDK1/CyclinB1 it was 1.92 µM; against CDK2/CyclinE1, 0.011 µM.
For `O=C1N([C@@H]2CCC[C@@H](O)C2)c2nc(Nc3c[nH]nc3-c3cnn4ccccc34)ncc2C12CC2` [Example 28, 7′-((1R,3R)-3-hydroxycyclohexyl)-2′-((3-(pyrazolo[1,5-a]pyridin-3-yl)-1H-pyrazol-4-yl)amino)spiro[cyclopropane-1,5′-pyrrolo[2,3-d]pyrimidin]-6′(7′H)-one], the IC50 was 2.12 µM against CDK4/cyclinD1, 2.54 µM at CDK6/cyclinD3, 1.18 µM against CDK1/CyclinB1 and 0.011 µM on CDK2/CyclinE1.
On the same counts, the results for `O=C1N([C@@H]2CCC[C@@H](O)C2)c2nc(Nc3c[nH]nc3OC3CC(F)(F)C3)ncc2C12CC2` [Example 29, 2′-((3-(3,3-difluorocyclobutoxy)-1H-pyrazol-4-yl)amino)-7′-((1R,3R)-3-hydroxycyclohexyl)spiro[cyclopropane-1,5′-pyrrolo[2,3-d]pyrimidin]-6′(7′H)-one] are 7.4 µM, ≥ 10 µM, 3.84 µM and 0.026 µM.
As to `O=C1N([C@@H]2CCC[C@@H](O)C2)c2nc(Nc3c[nH]nc3OC3CCC(F)(F)C3)ncc2C12CC2` (stereo partly shown) [Example 30], the concentration for half-maximal inhibition (IC50) is 6.95 µM on CDK4/cyclinD1, 9.8 µM at CDK6/cyclinD3, 4.27 µM against CDK1/CyclinB1 and 0.022 µM against CDK2/CyclinE1.
For `Cn1ncc(-c2n[nH]cc2Nc2ncc3c(n2)N([C@@H]2CCC[C@@H](O)C2)C(=O)C32CC2)c1C(F)F` [Example 31, 2′-((5′-(difluoromethyl)-1′-methyl-1H,1′H-[3,4′-bipyrazol]-4-yl)amino)-7′-((1R,3R)-3-hydroxycyclohexyl)spiro[cyclopropane-1,5′-pyrrolo[2,3-d]pyrimidin]-6′(7′H)-one], the IC50 on CDK4/cyclinD1 is 6.3 µM; at CDK6/cyclinD3, 9.7 µM; against CDK1/CyclinB1 it was 6.57 µM; at CDK2/CyclinE1, 0.021 µM.
As for `O=C1N([C@@H]2CCC[C@@H](O)C2)c2nc(Nc3c[nH]nc3[C@@H]3CC3(F)F)ncc2C12CC2` [Example 33, 2′-((3-((S)-2,2-difluorocyclopropyl)-1H-pyrazol-4-yl)amino)-7′-((1R,3R)-3-hydroxycyclohexyl)spiro[cyclopropane-1,5′-pyrrolo[2,3-d]pyrimidin]-6′(7′H)-one], the concentration for half-maximal inhibition (IC50) at CDK4/cyclinD1 is ≥ 10 µM; on CDK6/cyclinD3 it was ≥ 10 µM; on CDK1/CyclinB1, 3.76 µM; against CDK2/CyclinE1 it was 0.049 µM.
As to `O=C1N([C@@H]2CCC[C@@H](O)C2)c2nc(Nc3c[nH]nc3-c3cnn(C(F)F)c3)ncc2C12CC2` [Example 34, 2′-((1′-(difluoromethyl)-1H,1′H-[3,4′-bipyrazol]-4-yl)amino)-7′-((1R,3R)-3-hydroxycyclohexyl)spiro[cyclopropane-1,5′-pyrrolo[2,3-d]pyrimidin]-6′(7′H)-one], the concentration for half-maximal inhibition (IC50) was found to be 3.31 µM at CDK4/cyclinD1, 3.31 µM on CDK6/cyclinD3, 2.31 µM on CDK1/CyclinB1 and 0.01 µM at CDK2/CyclinE1.
With `Cn1cc(Oc2n[nH]cc2Nc2ncc3c(n2)N([C@@H]2CCC[C@@H](O)C2)C(=O)C32CC2)cn1` [Example 35, 7′-((1R,3R)-3-hydroxycyclohexyl)-2′-((3-((1-methyl-1H-pyrazol-4-yl)oxy)-1H-pyrazol-4-yl)amino)spiro[cyclopropane-1,5′-pyrrolo[2,3-d]pyrimidin]-6′(7′H)-one], the IC50 against CDK4/cyclinD1 is ≥ 10 µM; against CDK6/cyclinD3, ≥ 10 µM; against CDK1/CyclinB1, 3.16 µM; against CDK2/CyclinE1, 0.054 µM.
In the case of `O=C1N([C@@H]2CCC[C@@H](O)C2)c2nc(Nc3c[nH]nc3C#Cc3cccnc3)ncc2C12CC2` [Example 36, 7′-((1R,3R)-3-hydroxycyclohexyl)-2′-((3-(pyridin-3-ylethynyl)-1H-pyrazol-4-yl)amino)spiro[cyclopropane-1,5′-pyrrolo[2,3-d]pyrimidin]-6′(7′H)-one], the IC50 against CDK4/cyclinD1 was ≥ 10 µM; against CDK6/cyclinD3 it was ≥ 10 µM; against CDK1/CyclinB1, 4.99 µM; against CDK2/CyclinE1, 0.039 µM.
`Cc1c(-c2n[nH]cc2Nc2ncc3c(n2)N([C@@H]2CCC[C@@H](O)C2)C(=O)C32CC2)cnn1C` [Example 37, 2′-((1′,5′-dimethyl-1H,1′H-[3,4′-bipyrazol]-4-yl)amino)-7′-((1R,3R)-3-hydroxycyclohexyl)spiro[cyclopropane-1,5′-pyrrolo[2,3-d]pyrimidin]-6′(7′H)-one]: the concentration for half-maximal inhibition (IC50) is ≥ 10 µM at CDK4/cyclinD1, ≥ 10 µM on CDK6/cyclinD3, ≥ 10 µM at CDK1/CyclinB1 and 0.031 µM against CDK2/CyclinE1.
Take `O=C1N([C@@H]2CCC[C@@H](O)C2)c2nc(Nc3c[nH]nc3OCC3CC3)ncc2C12CC2` [Example 38, 2′-((3-(cyclopropylmethoxy)-1H-pyrazol-4-yl)amino)-7′-((1R,3R)-3-hydroxycyclohexyl)spiro[cyclopropane-1,5′-pyrrolo[2,3-d]pyrimidin]-6′(7′H)-one]: the IC50 against CDK4/cyclinD1 was found to be 6.1 µM; against CDK6/cyclinD3 it was 9.2 µM; on CDK1/CyclinB1, 1.04 µM; at CDK2/CyclinE1, 0.008 µM.
On the same counts, the results for `O=C1N([C@@H]2CCC[C@@H](O)C2)c2nc(Nc3c[nH]nc3OCCF)ncc2C12CC2` [Example 39, 2′-((3-(2-fluoroethoxy)-1H-pyrazol-4-yl)amino)-7′-((1R,3R)-3-hydroxycyclohexyl)spiro[cyclopropane-1,5′-pyrrolo[2,3-d]pyrimidin]-6′(7′H)-one] are 1.43 µM, 2.95 µM, 1.2 µM and 0.007 µM.

The values are drawn from US20240360137A1 (Novartis AG, priority 2023, published 2024).
